Reference: patent US11236072B2, “N-[(pyrimidinylamino)propanyl]-,n-[pyridylamino)propanyl]- and n-[(pyrazinylaminol)propanyl]arylcarboxamides” (Boehringer Ingelheim International GmbH, priority 2017, dated 2022)
Read-outs that look alike come from different tables or passages of the source.

Tests used:
[1] = biological target: T1, OX2R (Homo sapiens, UniProt O43614); assay: In vitro OX2R potency as reported in WO2016/034882
T1 sequence (O43614 1-444): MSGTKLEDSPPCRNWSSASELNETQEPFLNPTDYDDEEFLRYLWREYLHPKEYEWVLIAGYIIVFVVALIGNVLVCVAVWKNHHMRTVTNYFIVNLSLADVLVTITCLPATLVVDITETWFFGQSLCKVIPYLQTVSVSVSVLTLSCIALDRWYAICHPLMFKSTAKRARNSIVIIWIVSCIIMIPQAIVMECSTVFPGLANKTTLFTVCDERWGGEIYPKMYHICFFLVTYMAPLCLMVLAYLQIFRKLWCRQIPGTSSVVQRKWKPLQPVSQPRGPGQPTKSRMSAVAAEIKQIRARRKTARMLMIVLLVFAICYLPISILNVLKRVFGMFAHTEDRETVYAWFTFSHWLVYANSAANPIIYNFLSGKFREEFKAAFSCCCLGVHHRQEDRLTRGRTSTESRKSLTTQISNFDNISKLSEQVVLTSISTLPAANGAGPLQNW

[2] = biological target: T1, OX2R; details: cited from earlier work
[3] = Assay C: metabolic stability in human liver microsomes (Human MST); type: in vitro ADME; details: pH 7.6; pooled human liver microsomes, 1 μM compound, 37° C.; read-out: Human MST t1/2
Excerpt: Stability in human liver microsomes refers to the susceptibility of compounds to biotransformation in the context of selecting and/or designing drugs with favorable pharmacokinetic properties. The primary site of metabolism for many drugs is the liver. Human liver microsomes contain the cytochrome P450s (CYPs), and thus represent a model system for studying drug metabolization in vitro. Enhanced stability in human liver microsomes is associated with several advantages, including increased bioavailability and longer half-life, which can enable lower and less frequent dosing of patients. Thus, enhanced stability in human liver microsomes is a favorable characteristic for compounds that are to be used for drugs.
C. Assessment of Metabolic Stability in Human Liver Microsomes (Human MST)
The metabolic stability of the compounds according to the invention may be investigated as follows:
The metabolic degradation of the test compound is assayed at 37° C. with pooled human liver microsomes. The final incubation volume of 100 μL per time point contains TRIS buffer pH 7.6 at room temperature (0.1 M), MgCl2 (5 mM), microsomal protein (1 mg/mL) and the test compound at a final concentration of 1 μM. Following a short pre-incubation period at 37° C., the reactions are initiated by addition of beta-nicotinamide adenine dinucleotide phosphate, reduced form (NADPH, 1 mM), and terminated by transferring an aliquot into solvent after different time points. After centrifugation (10000 g, 5 min), an aliquot of the supernatant is assayed by LC-MS/MS for the amount of parent compound. The half-life (t1/2) is determined by the slope of the semi-logarithmic plot of the concentration-time profile.

[4] = test system: human MDR1 P-gp; assay: Assay D: efflux in MDCK cells transfected with the human MDR1 gene; type: in vitro ADME, canine; details: dog; MDCK-MDR1 monolayers, pH 7.4, 37° C.; read-out: MDCK efflux ratio (BA/AB)
Protocol: The MDCK assay provides information on the potential of a compound to pass the blood brain barrier. Permeability measurements across polarized, confluent MDCK-MDR1 cell monolayers grown on permeable filter supports are used as an in vitro absorption model: apparent permeability coefficients (PE) of the compounds across the MDCK-MDR1 cell monolayers are measured (pH 7.4, 37° C.) in apical-to-basal (AB) and basal-to-apical (BA) transport direction. […] Identical or similar permeabilities in both transport directions indicate passive permeation, vectorial permeability points to additional active transport mechanisms. Higher PEBA than PEAB (PEBA/PEAB>5) indicates the involvement of active efflux mediated by MDR1 P-gp, which might compromises the goal to achieve sufficient brain exposure. Therefore this assay provides valuable support for selection of compounds applicable for further in vivo testing. High permeability not limited by efflux at the blood brain barrier is a favourable characteristic for compounds that are to be used for drugs acting primarily in the CNS
D. Assessment of Efflux in Madin-Darby Canine Kidney (MDCK) Cells Transfected with the Human MDR1 Gene
Apparent permeability coefficients (PE) of the compounds across the MDCK-MDR1 cell monolayers are measured (pH 7.4, 37° C.) in apical-to-basal (AB) and basal-to-apical (BA) transport direction. […] The compounds are assigned to permeability/absorption classes by comparison of the AB permeabilities with the AB permeabilities of reference compounds with known in vitro permeability and oral absorption in the human. Identical or similar permeabilities in both transport directions indicate passive permeation, vectorial permeability points to additional active transport mechanisms. Higher PEBA than PEAB indicates the involvement of active efflux mediated by MDR1 P-gp. Active transport is concentration-dependently saturable.
MDCK-MDR1 cells (1-2×10e5 cells/1 cm2 area) are seeded on filter inserts (Costar transwell polycarbonate or PET filters, 0.4 μm pore size) and cultured (DMEM) for 7 days. Subsequently, the MDR1 expression is boosted by culturing the cells with 5 mM sodium butyrate in full medium for 2 days. Compounds are dissolved in appropriate solvent (like DMSO, 1-20 mM stock solutions). Stock solutions are diluted with HTP-4 buffer (128.13 mM NaCl, 5.36 mM KCl, 1 mM MgSO4, 1.8 mM CaCl2, 4.17 mM NaHCO3, 1.19 mM Na2HPO4×7H2O, 0.41 mM NaH2PO4×H2O, 15 mM HEPES, 20 mM glucose, 0.25% BSA, pH 7.4) to prepare the transport solutions (0.1-300 μM compound, final DMSO<=0.5%). The transport solution (TL) is applied to the apical or basolateral donor side for measuring A-B or B-A permeability (3 filter replicates), respectively. The receiver side contains the same buffer as the donor side. Samples are collected at the start and end of experiment from the donor and at various time intervals for up to 2 hours also from the receiver side for concentration measurement by HPLC-MS/MS or scintillation counting. Sampled receiver volumes are replaced with fresh receiver solution.

[5] = biological target: T2, human Orexin 1 receptor (Homo sapiens, UniProt O43613); assay: Assay A: in vitro testing of OX1R potency, OX1R IP1; type: cell-based; details: for Kb: 50 nM Orexin A concentration
T2 sequence (O43613 1-425): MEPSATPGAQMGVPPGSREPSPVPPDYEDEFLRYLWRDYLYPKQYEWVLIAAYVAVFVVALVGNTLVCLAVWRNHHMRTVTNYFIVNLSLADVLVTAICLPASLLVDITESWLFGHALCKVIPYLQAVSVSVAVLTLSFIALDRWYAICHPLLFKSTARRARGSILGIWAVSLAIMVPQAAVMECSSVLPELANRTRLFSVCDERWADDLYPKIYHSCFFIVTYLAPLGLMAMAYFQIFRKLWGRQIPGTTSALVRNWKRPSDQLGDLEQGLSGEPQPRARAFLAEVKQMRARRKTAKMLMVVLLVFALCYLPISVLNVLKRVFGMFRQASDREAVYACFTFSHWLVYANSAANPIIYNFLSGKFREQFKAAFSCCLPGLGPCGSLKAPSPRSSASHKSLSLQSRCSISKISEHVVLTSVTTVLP
Excerpt: Chem. Genomics 2009, 3, 22-32.
A. In Vitro Testing of OX1R Potency: OX1R IP1

[6] = Table 3 of WO2016/034882, corresponds to pIC50
[7] = compared to Example 84 in WO2016/034882

For `CC[C@@H](CNc1cnc(C(F)(F)F)cn1)N(C)C(=O)c1cc(Cl)ccc1-n1nccn1` [Ex 40 in WO2016/ 034882], the “OX2R IC50/OX1R IC50” value ([1]; Table 1 of WO2016/034882) was “Table 1: 156”.
With `CC[C@@H](CNc1ncc(C(F)(F)F)cn1)N(C)C(=O)c1nc(C)ccc1-n1nccn1` [Ex 46 in WO2016/ 034882] the “OX2R IC50/OX1R IC50” value ([1]; Table 1 of WO2016/034882) was 390, the “OX2R IC50/OX1R IC50” value ([1]; Table 2 of WO2016/034882) was > 312 and the “OX2R IC50/OX1R IC50” value ([1]; Table 3 of WO2016/034882) was 3200. For the same molecule, the IC50 ([2]; Table 2 of WO2016/034882, corresponds to pIC50) was > 10000 nM, the “OX2R pIC50” value ([2]; Table 2 of WO2016/034882) was < 5.0 and the IC50 [2, 6] was ≥ 10000 nM. The “OX2R pIC50” value ([2]; Table 3 of WO2016/034882) was < 5.0.
For `CC[C@@H](CNc1ncc(C(F)(F)F)cn1)N(CC)C(=O)c1nc(C)ccc1-n1nccn1` [Ex 73 in WO2016/ 034882], the IC50 [2, 6] is listed as > 1000 nM and the “OX2R pIC50” value ([2]; Table 3 of WO2016/034882) is listed as < 6.0.
In the case of `CC[C@@H](CNc1ncc(C(F)(F)F)cn1)N(C)C(=O)c1c(F)cccc1-n1nccn1` [Ex 91 in WO2016/ 034882], the half-life at 1 μM [3] is listed as > 2.17 h, the IC50 [2, 6] is listed as ≥ 7590 nM and the “OX2R pIC50” value ([2]; Table 3 of WO2016/034882) is listed as < 5.1.
With `C[C@@H](CNc1ncc(C(F)(F)F)cn1)N(CC1CC1)C(=O)c1cccc(F)c1-n1nccn1` [Example 1] the half-life at 1 μM [3] was 1.22 h, the efflux ratio [4] was < 3 and the Kb [5] was 0.214 nM.
For `C[C@@H](CNc1ncc(C(F)(F)F)cn1)N(CCF)C(=O)c1cccc(F)c1-n1nccn1` [Example 2], the half-life at 1 μM [3] was > 2.17 h, the efflux ratio [4] was < 3 and the Kb [5] was 0.67 nM.
With `CCN(C(=O)c1cc(Cl)ccc1-n1nccn1)[C@@H](C)CNc1ncc(C(F)(F)F)cn1` [Example 3] the half-life at 1 μM [3] was 2.17 h, the efflux ratio [4] was < 3 and the Kb [5] was 0.032 nM.
In the case of `CCN(C(=O)c1cccc(F)c1-n1nccn1)[C@@H](C)CNc1ncc(Br)cn1` [Example 4], the half-life at 1 μM [3] is reported as > 2.17 h, the efflux ratio [4] is reported as < 3 and the Kb [5] is reported as 0.116 nM.
For `CCN(C(=O)c1cccc(F)c1-n1nccn1)[C@@H](C)CNc1ncc(C(F)(F)F)cc1C#N` [Example 7], the half-life at 1 μM [3] was 1.48 h, the efflux ratio [4] was < 3 and the Kb [5] was 0.021 nM.
For `CCN(C(=O)c1ccc(F)c(F)c1-c1ncccn1)[C@@H](C)CNc1ncc(C(F)(F)F)cn1` [Example 8], the half-life at 1 μM [3] was > 2.17 h, the efflux ratio [4] was < 3 and the Kb [5] was 0.014 nM. For the same molecule, the “higher potency (OX1R)” value [5, 7] was “over 150 fold”.
For `C[C@@H](CNc1ncc(C(F)(F)F)cn1)N(C)C(=O)c1cccc(F)c1-c1ncccn1` [Example 9], the half-life at 1 μM [3] was > 2.17 h, the efflux ratio [4] was < 3 and the Kb [5] was 0.223 nM. For the same molecule, the “higher potency (OX1R)” value [5, 7] was ~10 fold.
With `CCN(C(=O)c1cc(Cl)ccc1-n1nccn1)[C@@H](C)CNc1cnc(C(F)(F)F)cn1` [Example 10] the half-life at 1 μM [3] was 2.17 h, the efflux ratio [4] was < 3 and the Kb [5] was 0.011 nM. For the same molecule, the “better potency (OX1R)” value ([5]; compared to Example 40 in WO2016/034882) was 16 fold.
In the case of `CCN(C(=O)c1cc(F)cnc1-n1nccn1)[C@@H](C)CNc1ccc(C(F)(F)F)cn1` [Example 12], the half-life at 1 μM [3] is reported as 0.733 h, the efflux ratio [4] is reported as 3 to 5.5 and the Kb [5] is reported as 0.156 nM. For the same molecule, the “higher potency (OX1R)” value ([5]; compared to Example 73 in WO2016/034882) was “approximately 2 fold”.
For `CCN(C(=O)c1cnc(C)nc1-c1ccccc1)[C@@H](C)CNc1ncc(Br)cn1` [Example 13], the half-life at 1 μM [3] was 1.27 h, the efflux ratio [4] was < 3 and the Kb [5] was 0.089 nM.
